Experimental data taken from patent EP0926242A1, “GLIOTOXIN DERIVATIVES AND ANTICANCER AGENT COMPRISING THE SAME” (priority 1996, dated 1998).

Assays:
[1] = system: various cancer cells; assay: Judgement of apoptosis by DAPI nucleus staining; format: cell-based; conditions: agglomeration of chromosomes, fluorescence microscope
Description: Antitumor activity of acetylgliotoxin against various cancer cells was measured by the MTT method. Various cancer cells were adjusted to 4.0 × 10^4 cells/mL by using a medium (hereinafter referred to as medium A) composed of RPMI 1640 medium (GIBCO) containing 10% fetal calf serum, and each 0.1 mL of the cancer cells was pipetted into each well of a 96 well microtiter plate. The plate was incubated in a carbon dioxide gas incubator at 37 °C for 20 hours, and each 0.025 mL of samples (test compounds) suitably diluted with the medium A was added. Then, incubation was further carried out in the carbon dioxide gas incubator at 37 °C for 72 hours. […] Produced crystals were dissolved, and absorbance at 570 nm was measured by a microplate reader. […] Apoptosis was determined by incubating the plate in the carbon dioxide gas incubator at 37 °C for 20 hours, adding each 0.025 mL of samples (test compounds) suitably diluted with the medium A, incubating in the carbon dioxide gas incubator at 37 °C for 72 hours, according to the above method, adding nucleus-staining fluorescent dye DAPI (4,6 - diaminodino-2-henylindole) to each well so as to become 0.5 ng/mL, and after leaving at room temperature for 10 minutes, confirming agglomeration of chromosomes by using a fluorescence microscope.

[2] = system: Human carcinoma of the colon cell strain HCT-116; assay: Tertiary culture using test human cancer, killed cells by MTT method; format: cell-based; conditions: incubated 3 days
Description: Tertiary cultures were carried out using a human carcinoma of the colon tissue in stage 2b. The tertiary cultures were carried out according to the reported method (Int.J.Cancer Res., 82, 607-612 (1991), Gan to Kagakuryoho, 18, 239-243 (1991), Gan to Kagakuryoho, 19, 743-748 (1992)). The extracted tissue of carninoma of the colon was cut into square pieces having a side of about 2 mm, and incubated in a RPMI- 1640 medium containing 10 % fetal calf serum under 5 % CO2 at 37 °C for 3 days. Existing anticancer agents or acetylgliotoxin were diluted and added, and further incubated for 3 days. Then, the rate of killed cells was determined by the MTT method. The tertiary cultures using the test human cancer were carried out as follows: Human carcinoma of the colon cell strain HCT-116 was transplanted into the subcutaneous tissue of a nude mouse (Balb nu/nu) to induce tumor. The cancer tissue was extracted from the tumor-induced portion, and cut into square pieces having a side of 2 mm. The evaluation of the existing anticancer agents and acetylyliotoxin was earried out according to the aforementioned method.

[3] = Body weight in the COLON-26 evaluation in vivo (Example 1); design: species or system CDFI mice; conditions: day 21, COLON-26 mice, control 24.7 g
Description: CDFI mice (female: 4 weeks old) were bought, and colon-26 subcultured in vivo in the subcutaneous tissue was taken out. The colon-26 was minced in a Petridish, and transplanted into the sulcutaneous tissue of CDFI mice in an amount of 10 mg/mouse by a trucker. The transplanted day was assigned day 0, and the size of the tumor and body weight were measured on day 7 and divided into groups by n=4. The size of tumor was calculated as tumor weight by the following formula. (Tumor Weight (mg) = Tumor Volume (mm)^3 =1/2 × Major Axis (mm) × Minor Axis (mm))^2 [formula]
Administration was carried out from day 7 according to the following schedule. Dose was 0.2 mL/mouse, and injected into abdominal cavity. Acetylgliotoxin was dissolved in dimethyl sulfoxide (DMSO) in a concentration of 100 mg/mL, and adjusted to an object concentration (0.5 mg/kg, 1 mg/kg, 10 mg/kg, 20 mg/kg) by 5% Tween 80 (saline solution). In the evaluation of […], 1 mg/kg, injection was carried out every day for 5 days, in the case of 10 mg/kg, injected twice on day 7 and day 8, and in the case of 20 mg/kg, injected once on day 7.

[4] = system: mouse carcinoma of the colon cells colon 26; assay: Anticancer effect in vivo against colon 26 (Example 9 A); conditions: CDFI mice
Description: • (A) Evaluationin vivo using mouse carcinoma of the colon cells colon 26 CDFI mice (female : 4 weks age) were bought, and colon 26 subcultured in the subcutaneous tissue of the mouse was taken out, and cut into small pieces by a scissors. The cancer cells were transplanted into subcutaneous tisue of CDFI mice by a trucker. The day was assigned 0 day, and the tumor was measured by a slide caliper after 7 days. The volume of the tumor was calculated, and divided into groups (each group : n = 4). The text compound was dissolved in dimethylsulfoxide, and diluted with 5 % Tween 80- saline aqueous solution. […] The administration was carried out after 7 days, after 11 days and after 15 days or after 7 days and after 8 days from the transplantation at a rate of once per one day. 21st day from the transplantation, the volume of tumor was measured and the volume of tumor and the inhibition against tumor multiplication rate (I.R.) were calculated. The volume of tumor was calculated by the following formula. (Tumore Volume [mm)^3 (]= Minor Axis [mm])^2 × Major Axis [mm] × (1/2) [formula] • The inhibition against tumor multiplication rate (I.R.) was calculated by the following formula. I.R. [%] = {1- (Average Tumor Volume of Administration Group / Average Tumor Volume of Control Group)) × 100 [formula] • (B) Evaluation in vivo using human carcinoma of the colon cells HCT-116 Balb/c nu/nu mice (female : 5 weks age) were bought, and HCT-116 (Dainippon Seiyaku) subcultured in the subcutaneous tissue of the mouse was taken out, and cut into small pieces by a scissors. The cancer cells were transplanted into subcutaneous tissue of […] mice by a trucker. The day was assigned 0 day, and the tumor was measured by a slide caliper after 7 days. The volume of the tumor was calculated, and divided into groups (each group : n = 2). The text compound was dissolved in dimethylsulfoxide, and diluted with 5 % Tween 80- saline aqueous solution. […] The administration was carried out after 7 days, after 11 days and after 15 days from the transplantation at a rate of once per one day. 21st day from the transplantation, the volume of tumor was measured and the volume of tumor and the inhibition against tumor multiplication rate (I.R.) were calculated by the above formulas.

[5] = 2.5[mg/kg]×3 (i.p.), 7,11,15th days
[6] = 5 [mg/kg]×3 (i.p.), 7,11,15th days
[7] = 10 [mg/kg]×2 (i.p.), 7,8th days

SMILES: CC(=O)OC1C=CC=C2CC34SSC(CO)(C(=O)N3C21)N(C)C4=O (centres unmarked) [acetylgliotoxin]
- apoptosis (cell death) -inducing ability [1]: apoptosis (cell death) -inducing ability
- I. R. (%) ([2]; conc. 6.25 ug/mL): 43%
- I. R. (%) ([2]; conc. 12.5 ug/mL): 56%
- I. R. (%) ([2]; conc. 25 ug/mL): 67%
- weight ([3]; 0.5 mg/kg×5 i.p.(d7-11)): 24.7 g
- weight ([3]; 1 mg/kg×5 i.p.(d7-11)): 24.9 g
- weight ([3]; 10 mg/kg×2 i.p.(d7, 8)): 24.1 g
- weight ([3]; 20 mg/kg×1 i.p.(d7)): 25.2 g
- I.R. (21st day) [4, 5]: 19.6%
- I.R.Max [4, 5]: 44.9%
- I.R. (21st day) [4, 6]: 11.8%
- I.R.Max [4, 6]: 56.8%
- I.R. (21st day) [4, 7]: 26.0%
- I.R.Max [4, 7]: 68.8%
